Type in all cases: biochemical
The target of assay [1] is PKR R510Q (Homo sapiens, UniProt P30613, R510Q). Description: PKR R510Q Single Point Percent Activation Assay. The note with it: read-out: Act. % 510Q. The protocol: PKR R510Q Single Point Percent Activation Assay
(§1) A compound described herein was diluted with DMSO and tested at 1 μM concentration. The enzyme was diluted in 1× Buffer: (100 mM KCl, 50 mM Tris 7.5, 5 mM MgCl2, 1 mM DTT, 0.03% BSA). 2 μL of compound solution was first added into wells, and then 180 μL of enzyme solution was added. Assays were assembled except for ADP, and plates were stored for 60 minutes at RT. 20 μL ADP was added to start the assay and assay output was evaluated using OD340 at SpectraMax. The assay was run at room temperature.
Final concentration: PKR R510Q (40 ng/well), Tris pH 7.5 (50 mM), KCl (100 mM), MgCl2 (5 mM), ADP (0.2 mM), PEP (0.11 mM), NADH (180 μM), LDH (0.5 units, Sigma 59023), DTT (1 mM) and BSA (0.03%).

For assay [2], the target named is PKR R532W (Homo sapiens, UniProt P30613, R532W). Description: PKR R532W Single Point Percent Activation Assay. The note with it: read-out: Act, % 532W. As for the experimental part:
PKR R532W Single Point Percent Activation Assay
as §1
Final concentration: PKR R532W (100 ng/well), Tris pH 7.5 (50 mM), KCl (100 mM), MgCl2 (5 mM), ADP (0.36 mM), PEP (0.1 mM), NADH (180 μM), LDH (0.5 units, Sigma 59023), DTT (1 mM) and BSA (0.03%).

For assay [3], the target named is PKR T384W (Homo sapiens, UniProt P30613, T384W). Description: PKR T384W Single Point Percent Activation Assay. The note with it: read-out: Act. % 384W. As for the experimental part:
PKR T384W Single Point Percent Activation Assay
A compound described herein was diluted with DMSO and tested at 1 μM concentration. The enzyme was diluted in 1× Buffer: (100 mM KCl, 50 mM Tris 7.5, 5 mM MgCl2, 1 mM DTT, 0.03% BSA). 2 μL of compound solution was first added into wells, and then 180 μL enzyme solution was added. Assays were assembled except for ADP, and plates were stored for 60 minutes at RT. 20 μL ADP was added to start the assay and assay output was evaluated using OD340 at SpectraMax. The assay was run at room temperature.
Final concentration: PKR T384W soluble (300 ng/well), Tris pH 7.5 (50 mM), KCl (100 mM), MgCl2 (5 mM), ADP (0.08 mM), PEP (0.23 mM), NADH (180 μM), LDH (0.5 units, Sigma 59023), DTT (1 mM) and BSA (0.03%).

In assay [4] the target is PKR wt (Homo sapiens, UniProt P30613). The experiment in a line: PKR WT Single Point Percent Activation Assay. As for the experimental part:
PKR WT Single Point Percent Activation Assay
as §1
Final concentration: PKR wt (100 ng/well), Tris pH 7.5 (50 mM), KCl (100 mM), MgCl2 (5 mM), ADP (0.48 mM), PEP (0.15 mM), NADH (180 μM), LDH (0.5 units, Sigma 59023), DTT (1 mM) and BSA (0.03%).

Chain of PKR T384W (P30613 whole entry T384W): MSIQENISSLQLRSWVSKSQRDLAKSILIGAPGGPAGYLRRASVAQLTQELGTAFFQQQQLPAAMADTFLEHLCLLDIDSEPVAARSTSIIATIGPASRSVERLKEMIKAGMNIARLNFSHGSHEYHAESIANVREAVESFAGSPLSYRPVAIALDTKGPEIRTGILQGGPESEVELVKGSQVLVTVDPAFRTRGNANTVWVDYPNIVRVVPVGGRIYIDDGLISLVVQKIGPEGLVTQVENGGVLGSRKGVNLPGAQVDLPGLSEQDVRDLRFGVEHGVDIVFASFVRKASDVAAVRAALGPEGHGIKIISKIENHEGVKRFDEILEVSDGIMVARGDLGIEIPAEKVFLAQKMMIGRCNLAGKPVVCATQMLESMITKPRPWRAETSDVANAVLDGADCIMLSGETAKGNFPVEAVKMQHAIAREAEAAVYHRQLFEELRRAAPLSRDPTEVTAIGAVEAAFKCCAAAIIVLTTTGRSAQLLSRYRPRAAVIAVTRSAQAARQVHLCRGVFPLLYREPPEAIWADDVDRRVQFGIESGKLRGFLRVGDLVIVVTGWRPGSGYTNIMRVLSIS
Chain of PKR R510Q (P30613 whole entry R510Q): as the sequence (P30613 whole entry T384W) above, with W384T, R510Q counted along it
Chain of PKR wt (P30613 whole entry): as the sequence (P30613 whole entry T384W) above, with W384T counted along it
Chain of PKR R532W (P30613 whole entry R532W): as the sequence (P30613 whole entry T384W) above, with W384T, R532W counted along it

Turning to `C[C@H]1CN(Cc2cc(F)cc(F)c2F)CCN1C(=O)c1ccc(NS(=O)(=O)c2cccc3cccnc23)cc1`, the activation at 1 µM in assay [1] lay in the range of 1 to 100%; in assay [2] it was 1 to 100%; in assay [3], 101 to 500%; in assay [4] it was 101 to 500%.

As to `CC(c1ccc(F)cc1Cl)N1CCN(C(=O)c2ccc(NS(=O)(=O)c3cccc4cccnc34)cc2)[C@H](C)C1` (some centres unmarked), the activation at 1 µM lay within 1 to 100% in assay [1], 101 to 500% in assay [2], 101 to 500% in assay [3] and 101 to 500% in assay [4].

`C[C@@H]1CN(C(=O)OC2CCCC2)CCN1C(=O)c1ccc(NS(=O)(=O)c2cccc3cccnc23)cc1`: the activation at 1 µM in assay [1], in assay [2], in assay [3] and in assay [4] was 101 to 500% throughout.

For `CC[C@H]1CN(C(C)c2cc(F)cc(F)c2)CCN1C(=O)c1ccc(NS(=O)(=O)c2cccc3cccnc23)cc1` (some centres unmarked), the activation at 1 µM in assay [1], in assay [2], in assay [3] and in assay [4] was 1 to 100% each time.

`CC(c1c(F)ccc(F)c1F)N1CCN(C(=O)c2ccc(NS(=O)(=O)c3cccc4cccnc34)cc2)[C@H](C)C1` (some centres unmarked): the activation at 1 µM is 1 to 100% in assay [1], 101 to 500% in assay [2], 101 to 500% in assay [3] and 101 to 500% in assay [4].

Consider `O=C1CN(C(=O)c2ccc(NS(=O)(=O)c3cccc4cccnc34)cc2)CCN1Cc1cc(F)cc(F)c1`, for which the activation at 1 µM in assay [1], in assay [2], in assay [3] and in assay [4] was 101 to 500% in each case.

With `C[C@@H]1CN(C(=O)c2ccccn2)C[C@H](C)N1C(=O)c1ccc(NS(=O)(=O)c2cccc3cccnc23)cc1`, the activation at 1 µM fell in the range of 1 to 100% in assay [1], 1 to 100% in assay [2], 1 to 100% in assay [3] and 101 to 500% in assay [4].

Take `CC(c1c(F)cc(F)cc1F)N1CCN(C(=O)c2ccc(NS(=O)(=O)c3cccc4cccnc34)cc2)[C@@H](C)C1` (some centres unmarked): the activation at 1 µM in assay [1], in assay [2], in assay [3] and in assay [4] was 101 to 500% each time.

For the compound `C[C@H]1CN(C(=O)c2ccc(NS(=O)(=O)c3cccc4cccnc34)cc2)CCN1Cc1ccccc1`, the activation at 1 µM in assay [1], in assay [2], in assay [3] and in assay [4] was 101 to 500% each time.

With `CC(c1c(F)cccc1F)N1CCN(C(=O)c2ccc(NS(=O)(=O)c3cccc4cccnc34)cc2)[C@H](C)C1` (some centres unmarked), the activation at 1 µM in assay [1] lay within 101 to 500%; in assay [2], 1 to 100%; in assay [3], 1 to 100%; in assay [4], 1 to 100%.

`COc1cccc(CN2CCN(C(=O)c3ccc(NS(=O)(=O)c4cccc5cccnc45)cc3)[C@H](C)C2)c1OC`: the activation at 1 µM in assay [1] fell in the range of 1 to 100%; in assay [2], 101 to 500%; in assay [3], 101 to 500%; in assay [4], 101 to 500%.

For the compound `CC(c1cc(F)c(F)cc1F)N1CCN(C(=O)c2ccc(NS(=O)(=O)c3cccc4cccnc34)cc2)[C@H](C)C1` (some centres unmarked), the activation at 1 µM in assay [1] was in the range of 101 to 500%; in assay [2], 101 to 500%; in assay [3], 1 to 100%; in assay [4], 101 to 500%.

As for `CC(c1ccccc1F)N1CCN(C(=O)c2ccc(NS(=O)(=O)c3cccc4cccnc34)cc2)[C@H](C)C1` (some centres unmarked), the activation at 1 µM in assay [1], in assay [2], in assay [3] and in assay [4] was 1 to 100% throughout.

In the case of `CC(c1c(F)cc(F)cc1F)N1CCN(C(=O)c2ccc(NS(=O)(=O)c3cccc4cccnc34)cc2)[C@H](C)C1` (some centres unmarked), the activation at 1 µM in assay [1] lay in the range of 1 to 100%; in assay [2], 101 to 500%; in assay [3], 101 to 500%; in assay [4] it was 101 to 500%.

These data come from patent US9404081B2, “Pyruvate kinase activators for use in therapy” (AGIOS PHARMACEUTICALS, INC., priority 2011, dated 2016).
